The values that follow are results of earlier work, collected in paper PMC9851200, “Multiparameter phenotypic screening for endogenous TFEB and TFE3 translocation identifies novel chemical series modulating lysosome function” (Autophagy, 2022).

Each structure is given as a SMILES string.

Common to all, as to parameters: method as in original PKIS2 published data
The target of series [1] is kinases (KINOMEscan panel) (Homo sapiens, UniProt P16591). The following applies: FER; Published KINOMEscan; ref original PKIS2 published data; cited from earlier work.
Series [2] has as its target T1, kinases (KINOMEscan panel) (Homo sapiens, UniProt Q8IWQ3).
T1 sequence (Q8IWQ3 1-736): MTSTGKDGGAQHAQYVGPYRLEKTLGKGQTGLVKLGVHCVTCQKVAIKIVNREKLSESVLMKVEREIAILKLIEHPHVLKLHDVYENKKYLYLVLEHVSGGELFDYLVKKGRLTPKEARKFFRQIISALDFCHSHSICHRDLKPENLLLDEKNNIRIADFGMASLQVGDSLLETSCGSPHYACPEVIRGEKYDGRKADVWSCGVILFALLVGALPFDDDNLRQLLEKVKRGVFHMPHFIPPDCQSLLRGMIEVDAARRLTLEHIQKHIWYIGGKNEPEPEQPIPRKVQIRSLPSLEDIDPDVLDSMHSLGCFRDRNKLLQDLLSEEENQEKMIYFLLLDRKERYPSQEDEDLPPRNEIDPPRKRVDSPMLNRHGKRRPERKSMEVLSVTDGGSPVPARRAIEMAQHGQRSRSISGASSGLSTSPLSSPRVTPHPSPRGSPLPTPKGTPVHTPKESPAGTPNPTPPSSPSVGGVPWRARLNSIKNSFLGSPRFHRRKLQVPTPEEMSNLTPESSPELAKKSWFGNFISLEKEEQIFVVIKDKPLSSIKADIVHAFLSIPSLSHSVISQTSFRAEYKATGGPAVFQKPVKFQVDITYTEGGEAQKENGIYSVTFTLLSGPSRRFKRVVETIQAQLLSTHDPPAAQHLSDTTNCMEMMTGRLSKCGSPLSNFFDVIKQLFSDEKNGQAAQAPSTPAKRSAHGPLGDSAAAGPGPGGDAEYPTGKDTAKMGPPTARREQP
The following applies: kinase BRSK2; Published KINOMEscan; ref original PKIS2 published data; cited from earlier work.

For series [3], the target named is T2, kinases (KINOMEscan panel) (Homo sapiens, UniProt Q13976).
T2 sequence (Q13976 1-671): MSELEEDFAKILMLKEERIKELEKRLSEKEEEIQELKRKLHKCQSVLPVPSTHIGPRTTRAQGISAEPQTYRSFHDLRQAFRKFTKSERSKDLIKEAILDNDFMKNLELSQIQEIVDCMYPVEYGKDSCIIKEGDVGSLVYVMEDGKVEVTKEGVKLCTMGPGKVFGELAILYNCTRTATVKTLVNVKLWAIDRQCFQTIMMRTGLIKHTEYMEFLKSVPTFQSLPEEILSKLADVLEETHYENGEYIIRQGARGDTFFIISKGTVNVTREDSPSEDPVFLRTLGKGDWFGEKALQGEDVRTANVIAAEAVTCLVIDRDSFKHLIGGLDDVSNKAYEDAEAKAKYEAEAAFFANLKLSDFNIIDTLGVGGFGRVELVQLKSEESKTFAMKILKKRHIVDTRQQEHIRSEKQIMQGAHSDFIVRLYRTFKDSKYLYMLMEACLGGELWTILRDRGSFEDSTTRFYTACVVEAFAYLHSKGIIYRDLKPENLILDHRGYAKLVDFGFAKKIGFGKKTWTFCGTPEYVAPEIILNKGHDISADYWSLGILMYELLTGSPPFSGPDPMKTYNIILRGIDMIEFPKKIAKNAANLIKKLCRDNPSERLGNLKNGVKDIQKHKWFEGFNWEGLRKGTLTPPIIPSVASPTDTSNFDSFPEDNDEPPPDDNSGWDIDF
Particulars: kinase PRKG1; Published KINOMEscan; ref original PKIS2 published data; cited from earlier work.

In series [4] the target is T3, kinases (KINOMEscan panel) (Homo sapiens, UniProt O15530).
T3 sequence (O15530 1-556): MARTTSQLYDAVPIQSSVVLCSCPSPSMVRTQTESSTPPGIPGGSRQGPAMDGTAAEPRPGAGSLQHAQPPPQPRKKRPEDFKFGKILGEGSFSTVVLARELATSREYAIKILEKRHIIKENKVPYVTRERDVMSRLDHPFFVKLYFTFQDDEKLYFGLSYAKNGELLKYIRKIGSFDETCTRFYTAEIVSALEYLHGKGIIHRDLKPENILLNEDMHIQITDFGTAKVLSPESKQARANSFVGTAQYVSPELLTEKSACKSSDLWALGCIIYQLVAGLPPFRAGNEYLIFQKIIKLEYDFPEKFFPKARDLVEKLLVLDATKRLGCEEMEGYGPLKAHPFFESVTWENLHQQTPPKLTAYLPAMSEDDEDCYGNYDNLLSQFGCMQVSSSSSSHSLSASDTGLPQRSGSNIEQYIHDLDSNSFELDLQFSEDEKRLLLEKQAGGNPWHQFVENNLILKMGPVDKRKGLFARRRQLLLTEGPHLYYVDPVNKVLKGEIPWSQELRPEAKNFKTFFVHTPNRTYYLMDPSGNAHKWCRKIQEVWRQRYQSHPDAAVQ
The following applies: Published KINOMEscan; ref original PKIS2 published data; cited from earlier work.

Chain of kinases (KINOMEscan panel) (Homo sapiens, UniProt P16591) (P16591 whole entry): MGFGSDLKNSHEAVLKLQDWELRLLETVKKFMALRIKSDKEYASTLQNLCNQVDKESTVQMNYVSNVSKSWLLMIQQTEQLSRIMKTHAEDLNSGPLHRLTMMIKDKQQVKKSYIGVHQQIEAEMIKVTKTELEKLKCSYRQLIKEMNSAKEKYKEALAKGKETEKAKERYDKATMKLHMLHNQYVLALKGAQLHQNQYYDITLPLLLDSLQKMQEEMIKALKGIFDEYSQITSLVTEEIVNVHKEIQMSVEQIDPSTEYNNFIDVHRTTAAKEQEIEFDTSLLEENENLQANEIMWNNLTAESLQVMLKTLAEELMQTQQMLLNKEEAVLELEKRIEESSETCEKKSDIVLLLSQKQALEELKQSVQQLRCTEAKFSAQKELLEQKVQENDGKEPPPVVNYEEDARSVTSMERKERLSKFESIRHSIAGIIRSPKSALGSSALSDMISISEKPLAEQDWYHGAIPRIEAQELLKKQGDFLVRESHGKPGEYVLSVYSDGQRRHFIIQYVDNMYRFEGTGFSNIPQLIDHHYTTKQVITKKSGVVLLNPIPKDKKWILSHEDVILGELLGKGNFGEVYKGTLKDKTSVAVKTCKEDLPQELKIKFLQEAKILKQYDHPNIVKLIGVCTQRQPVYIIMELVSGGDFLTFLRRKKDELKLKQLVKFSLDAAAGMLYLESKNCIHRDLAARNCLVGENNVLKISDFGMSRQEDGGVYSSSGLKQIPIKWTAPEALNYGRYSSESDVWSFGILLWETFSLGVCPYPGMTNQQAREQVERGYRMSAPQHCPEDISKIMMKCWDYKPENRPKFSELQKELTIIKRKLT

Turning to `Cc1cccc(-c2nc(Nc3ccncc3)c3ccccc3n2)n1` [NK215], the “KINOMEscan FER” value in series [1] was 0. In addition, in series [2], the “KINOMEscan BRSK2” value was 11. In addition, the “KINOMEscan PRKG1” value in series [3] is given as 7. In addition, in series [4], the “KINOMEscan PDPK1” value is listed as 24.
